# Data reported in the supplement of paper PMC10307832.
# Assays:
# Experiment in all cases: relative viability (nuclei count vs DMSO), 5 days (fraction); higher = more cells survive
# GSK-J4 + Dasatinib = compound: CCOC(=O)CCNc1cc(N2CCc3ccccc3CC2)nc(-c2ccccn2)n1 [GSK-J4] + Cc1nc(Nc2ncc(C(=O)Nc3c(C)cccc3Cl)s2)cc(N2CCN(CCO)CC2)n1 [Dasatinib] (partner 0.075 µM)
# Procedure, shortened: (§1)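 A single step with final 0.05% Triton X-100, 1% formaldehyde and 1 ug/ml Hoechst fixed the cells and stained nuclei 5 days after treatment. Lung cancer cell lines in 1536-well plates had been treated by pin tool the day after seeding with one drug alone or a fixed anchor-drug dose plus five library-drug doses (not always all listed) in √10 steps, and nuclei were counted on 4× images. Relative viability is the ratio of nuclei in treated wells to nuclei in vehicle wells, taken as the median of duplicate plates.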
# AZ3146 + Trametinib = compound: CN1CCC(CC1)OC2=CC(=C(C=C2)NC3=NC=C4C(=N3)N(C(=O)N4C)C5CCCC5)OC [AZ3146] + CC(=O)Nc1cccc(-n2c(=O)n(C3CC3)c(=O)c3c(Nc4ccc(I)cc4F)n(C)c(=O)c(C)c32)c1 [Trametinib] (partner 0.02 µM)
# Procedure, shortened: as §1
# AZ3146 + Foretinib = compound: CN1CCC(CC1)OC2=CC(=C(C=C2)NC3=NC=C4C(=N3)N(C(=O)N4C)C5CCCC5)OC [AZ3146] + COc1cc2c(Oc3ccc(NC(=O)C4(C(=O)Nc5ccc(F)cc5)CC4)cc3F)ccnc2cc1OCCCN1CCOCC1 [Foretinib] (partner 0.25 µM)
# Procedure, shortened: as §1
# AZ3146 + Pictilisib = compound: CN1CCC(CC1)OC2=CC(=C(C=C2)NC3=NC=C4C(=N3)N(C(=O)N4C)C5CCCC5)OC [AZ3146] + CS(=O)(=O)N1CCN(Cc2cc3nc(-c4cccc5[nH]ncc45)nc(N4CCOCC4)c3s2)CC1 [Pictilisib] (partner 1 µM)
# Procedure, shortened: as §1
Cell Line,relative viability (GSK-J4 + Dasatinib; first compound 0.5 µM),relative viability (GSK-J4 + Dasatinib; first compound 1.581 µM),relative viability (GSK-J4 + Dasatinib; first compound 5 µM),relative viability (GSK-J4 + Dasatinib; first compound 15.81 µM),relative viability (GSK-J4 + Dasatinib; first compound 50 µM),relative viability (AZ3146 + Trametinib; first compound 0.08 µM),relative viability (AZ3146 + Trametinib; first compound 0.253 µM),relative viability (AZ3146 + Trametinib; first compound 0.8 µM),relative viability (AZ3146 + Trametinib; first compound 2.53 µM),relative viability (AZ3146 + Trametinib; first compound 8 µM),relative viability (AZ3146 + Foretinib; first compound 0.08 µM),relative viability (AZ3146 + Foretinib; first compound 0.253 µM),relative viability (AZ3146 + Foretinib; first compound 0.8 µM),relative viability (AZ3146 + Foretinib; first compound 2.53 µM),relative viability (AZ3146 + Foretinib; first compound 8 µM),relative viability (AZ3146 + Pictilisib; first compound 0.08 µM),relative viability (AZ3146 + Pictilisib; first compound 0.253 µM),relative viability (AZ3146 + Pictilisib; first compound 0.8 µM),relative viability (AZ3146 + Pictilisib; first compound 2.53 µM),relative viability (AZ3146 + Pictilisib; first compound 8 µM)
NCI-H1650,0.34,0.261,0.372,0.283,0.314,0.594,0.546,0.602,0.492,0.414,1.29,1.49,0.879,1,0.604,0.52,0.671,0.53,0.535,0.493
Calu-6,,,,,,,,,,,0.792,0.996,0.891,0.792,0.48,0.871,0.984,0.865,0.859,0.515
ABC-1,0.47,0.546,0.465,0.598,0.297,,,,,,0.98,1.01,1.29,1.1,0.709,0.566,0.866,0.687,0.878,0.723
SW 900,0.603,0.496,0.426,0.568,0.327,0.696,,0.557,0.706,0.819,0.899,0.761,0.811,0.893,0.759,,,,,
PC-3 [JPC-3],0.978,0.891,0.742,0.924,0.859,0.709,,0.596,0.728,0.626,0.927,1.02,1.03,1.14,0.966,0.669,0.651,0.766,0.8,0.681
NCI-H1648,,,,,,,,0.219,0.563,0.568,,,,,,,,,,
A549,,,,,,,,,,,1.08,0.952,0.743,0.177,0.063,0.475,0.503,0.483,0.404,0.139
A-427,0.609,,0.363,0.655,0.274,0.76,0.753,0.747,0.751,0.545,1.02,1.07,1,0.989,1.11,0.826,0.626,0.65,0.519,0.675
NCI-H1975,0.335,0.361,0.253,0.267,0.284,0.315,0.351,0.29,0.348,0.306,0.915,0.886,1.04,0.977,0.362,0.266,0.343,0.305,0.303,0.304
LU99A,0.441,0.582,,0.457,0.374,,0.501,0.567,0.68,0.579,0.699,0.87,0.782,0.849,0.869,0.318,0.351,0.32,0.376,0.351
NCI-H1755,0.367,0.406,0.246,0.364,0.361,0.674,0.787,0.714,0.783,0.785,0.917,0.935,0.859,0.915,0.97,0.421,0.433,0.359,0.441,0.442
LOU-NH91,0.65,0.612,0.432,0.506,0.631,0.838,0.76,0.867,0.794,0.781,0.967,0.902,1.01,0.931,0.948,0.475,0.542,0.459,0.494,0.474
SW 1573,0.326,0.42,0.348,0.362,0.246,0.541,0.63,0.663,0.591,0.45,0.897,0.732,0.983,1.15,0.884,0.457,0.539,0.507,0.633,0.443
CAL-12T,0.431,0.477,0.465,0.405,0.335,0.46,0.304,0.321,0.313,0.314,1.08,1.12,1.04,0.98,0.788,0.334,,0.475,0.554,0.481
NCI-H1734,0.405,0.454,0.378,0.396,0.468,0.641,0.663,0.594,0.662,0.62,0.811,0.859,0.885,0.853,0.705,0.501,0.522,0.418,0.474,0.499
EBC-1,,,,,,,,,,,0.112,0.0981,0.119,0.111,0.117,0.366,0.412,0.351,0.388,0.244
HCC-44,,,,,,1.07,1.02,0.996,1.04,1.15,,,,,,0.543,0.528,0.815,0.618,0.472
NCI-H2342,0.314,0.299,0.33,0.365,0.313,0.715,0.741,0.989,0.89,0.89,0.928,1.03,1.16,1.01,1.07,,,,,
NCI-H522,0.83,0.803,0.624,0.671,0.664,0.749,0.687,0.747,0.64,0.74,,,,,,,,,,
NCI-H1792,0.805,,0.817,0.529,0.809,0.37,0.38,0.415,0.421,0.516,,,,,,0.211,0.238,0.32,0.339,0.285
